The nature of data set [1]: fervescence activity by intravenous injection (rising of body temperature), 5 mg/kg. Format: in vivo, Wister male rats. To be noted: 5 mg/kg intravenous, urethane-anesthetized rats. On the procedure:
(§1) Test animals were Wister male rats (8 weeks old) weighing 200±10 g. The rats were applied to anesthesia by intraperitoneal injection of 1.25 g/kg of urethane. Each test drug was dissolved into ethyl alcohol. The ethyl alcohol solution was diluted with Ringer's solution at least 50 times just before use and 1 mg/kg of the each test drug was intravenously administered. Body temperature was measured in the same manner as in Example 1.
Ringer's solution containing ethyl alcohol was administered as control. Rising of body temperature is shown by the rising degree (°C.) from the temperature before administration.
Experiment was carried out in the same manner as in Example 2 except for that test drugs were administered intravenously with a dose of 5 mg/kg.

Data set [2] in a line: fervescence activity by intracerebroventricular injection (rising of body temperature). The format is in vivo, Wister male rats. To be noted: 400 ng in 3 μl into lateral ventricle, urethane-anesthetized rats, rectal temperature. On the procedure: fervescence activity by intracerebroventricular injection
Wister male rats (8 weeks old) were used as test animals.
Rats were applied to anesthesia by intraperitoneal injection with 1.25 g/kg of urethane and a stainless guide cannula was inserted into the lateral ventricle for administration of a test drug according to Pellegrino's Rat brain atras.
Each test drug was dissolved into an artificial cerebrospinal fluid and 400 ng as drug in 3 μl was injected through the injection cannula for 15 seconds. The artificial cerebrospinal fluid alone was injected as control. Body temperature was measured continuously at the rectum. Rising of body temperature is shown by the rising degree (°C.) from the temperature before administration.

The next data set in a line: acute toxicity (LD50). To be noted: mouse, in vivo; mice, intravenous injection. An excerpt:
Acute toxicity (LD50) of the test drugs was estimated on Slc-ddY female mice (5-weeks old) by an intravenous injection.

Data set [3] in a line: fervescence activity by intravenous injection (rising of body temperature), 1 mg/kg. Format: in vivo, Wister male rats. To be noted: 1 mg/kg intravenous, urethane-anesthetized rats. Here is the method: as §1, with “fervescence activity by intravenous injection Test animals” for “Test animals”, “Example 1. Ringer's solution containing ethyl alcohol was administered as control. Rising of body temperature is shown by the rising degree (°C.) from the temperature before administration.” for “Example 1.”

The conditions of data set [4]: in vivo; cited from earlier work.
The nature of data set [5]: fervescence (recovery of body temperature) activity at hemorrhage load. The format is in vivo, Wister male rats. To be noted: rat loaded with hemorrhage. Here is the method: fervescence (recovery of body temperature) activity at hemorrhage load
Wister male rats (weight: 200 g) were subcutaneously injected on the back with 1.5 g/kg of urethane, subjected to anesthesia. Hemorrhage was then induced by withdrawal of blood by puncture of the heart for the total volume of 3 ml equivalent to 1.5% of the body weight. After kept in a room for 60 minutes, the rats were administered intravenously with test solutions prepared by dissolving test drugs into Ringer's solution so as to administer the rat at a dose of 0.5 or 1 mg/kg, and change of the body temperature was observed. Ringer's solution was administered as control.
In the figures, (1), (2) and (3) correspond to the results of administration of doses 1 mg/kg, 0.5 mg/kg and Ringer's solution alone, respectively.

Data set [6] is described as follows: sedation activity and rising of body temperature in dog. Format: in vivo, hybrid adult dog. To be noted: intravenous. From the text: Sedation Activity A 19-methyl type compound having strong fervescence activity was compared with PGE2 […] sedation activity. A hybrid adult dog was held on a holder for dog and intravenously administered with a test drug dissolved in Ringer's solutions at the forefoot. Sedation activity was judged as follows: Sedation Degree 1: Disappearance of body movement 2: Closing of the eyes 3: Leaning on the holding belt

Where only a bound is given, the exact number is not on record here.

`CCOC(=O)CCCCC(=O)C[C@H]1C(=O)C[C@@H](O)[C@@H]1/C=C/C(=O)CCCC(C)C` [compound 62]: the “Rising of Body Temperature” value in data set [1] was “+0.63 °C”.
With `CCCCCC(=O)CC[C@H]1[C@H](O)CC(=O)[C@@H]1CCCCCCC(=O)OCC` [compound 2], the “Rising of Body Temperature” value was “+0.4 °C” in data set [2] and “+0.9 °C” in data set [3]. The median lethal dose (LD50) (commonly the dose expected to kill half of the subjects tested) in “acute toxicity (LD50)” is above 1000 mg/kg.
With `CCCCC[C@H](O)/C=C/[C@H]1[C@H](O)CC(=O)[C@@H]1C/C=C\CCCC(=O)O` [Test drug 58, PGE2], in data set [4], the “blood pressure (known)” value is reported as “strongly decreases the blood pressure” and the “fervescence activity (known)” value is reported as “known to have fervescence activity”.
On to `CCCCCC(=O)CC[C@H]1[C@H](O)CC(=O)[C@@H]1C/C=C\CCCC(=O)OCC` [compound 24], for which the “Rising of Body Temperature” value in data set [2] was “+0.5 °C”; in data set [5] (0.5 mg/kg intravenous) it was “+0.8 °C”; in data set [5] (1 mg/kg intravenous), “+1.1 °C”; in data set [3], “+0.5 °C”. Further, the 50% lethal dose (LD50) in “acute toxicity (LD50)” amounted to 1000 mg/kg.
In the case of `CCCCCC(=O)CC[C@H]1[C@H](O)CC(=O)[C@@H]1C/C=C\CCCC(=O)OCCC` [compound 25], the “Rising of Body Temperature” value is “+1.3 °C” in data set [1] and “+0.2 °C” in data set [3].
With `CCCCCC(=O)CC[C@H]1[C@H](O)CC(=O)[C@@H]1C/C=C\CCCC(=O)OCCCC` [compound 26], the entries for the “Rising of Body Temperature” value in data set [2], in data set [1] and in data set [3] were “+0.1 °C”, “+0.9 °C” and “+0.2 °C”, respectively.
In the case of `CCOC(=O)CCCCC(=O)C[C@H]1C(=O)C[C@@H](O)[C@@H]1CCC(=O)CCCC(C)C` [compound 16], in “acute toxicity (LD50)”, the LD50 was above 300 mg/kg. The “Rising of Body Temperature” value in data set [5] (0.5 mg/kg intravenous) was “+0.4 °C”; in data set [5] (1 mg/kg intravenous), “+0.6 °C”; in data set [3], “+0.8 °C”; in data set [6] (0.5 mg/kg), 1.1 °C.
Take `CCCCCC(=O)CC[C@H]1[C@H](O)CC(=O)[C@@H]1C/C=C\CCCC(=O)OC` [compound 23]: the “Rising of Body Temperature” value in data set [2] was “+0.4 °C”; in data set [3] it was “+1.0 °C”. The LD50 in “acute toxicity (LD50)” was above 1000 mg/kg.
With `COC(=O)CCC/C=C\C[C@H]1C(=O)C[C@@H](O)[C@@H]1CCC(=O)CCCC(C)C` [compound 45], the “Rising of Body Temperature” value is “+2.0 °C” in data set [3] and 0.5 °C in data set [6] (0.5 mg/kg).
On to `COC(=O)CCCCC(=O)C[C@H]1C(=O)C[C@@H](O)[C@@H]1CCC(=O)CCCC(C)C` [compound 15], for which the results for the “Rising of Body Temperature” value in data set [3] and in data set [6] (0.5 mg/kg) were “+0.7 °C” and 1.2 °C, respectively.
As to `CCCCC[C@H](O)/C=C/[C@H]1[C@H](O)CC(=O)[C@@H]1C/C=C\CCCC(=O)OC` [Test drug 59, PGE2 methyl ester, reference compound], in data set [6], the “sedation activity (in words)” value is “clear sedation activity”.
Turning to `CCCCC[C@H](O)/C=C/[C@H]1[C@H](O)CC(=O)[C@@H]1C/C=C\CCCC(=O)OC` [compound 59], the results for the “Rising of Body Temperature” value in data set [3] and in data set [6] (0.01 mg/kg) were “+1.2 °C” and 0.4 °C, respectively.

The record behind these values is patent US5001154A, “Fervescence composition” (K.K. Ueno Seiyaku Oyo Kenkyujo, priority 1987, dated 1991).
